Results: the NIST ThermoML archive (doi:10.1007/s10765-010-0725-9)
Several values for one entry are separate records, joined by “and”; a condition that tells them apart may be missing. Equal values may be shown once. Numbers after ± are expanded uncertainties.

What was measured:
[1] = wn = mass fraction of the nth substance listed; conditions: Pendant drop shape
[2] = Pendant drop shape

[Ca+2].[Cl-].[Cl-] [calcium chloride] + O
surface tension liquid-gas [mN/m], [1]
Conditions | 303.15 K | 313.15 K | 323.15 K | 333.15 K
w1 = 0.04 | 72.74 ± 0.9 | 70.84 ± 0.88 | 69.62 ± 0.87 | 67.62 ± 0.84
w1 = 0.1 | 74.59 ± 0.93 | 72.56 ± 0.9 | 70.38 ± 0.88 | 68.56 ± 0.85
w1 = 0.14 | 76.08 ± 0.94 | 73.65 ± 0.92 | 71.52 ± 0.89 | 70.63 ± 0.88
w1 = 0.18 | 77.53 ± 0.96 | 74.89 ± 0.93 | 73.25 ± 0.91 | 71.87 ± 0.9

[Cl-].[K+] [potassium chloride] + O
surface tension liquid-gas [mN/m], [1]
Conditions | 303.15 K | 313.15 K | 323.15 K | 333.15 K
w1 = 0.1 | 71.58 ± 1 | 69.86 ± 1 | 67.57 ± 0.98 | 66.39 ± 0.96
w1 = 0.14 | 72.12 ± 1.1 | 70.64 ± 1 | 69.15 ± 1 | 66.16 ± 0.96
w1 = 0.18 | 76.78 ± 1.1 | 75.23 ± 1.1 | 74.65 ± 1.1 | 71.44 ± 1

[Cl-].[Na+] [sodium chloride] + O
surface tension liquid-gas [mN/m], [1]
Conditions | 303.15 K | 313.15 K | 323.15 K | 333.15 K
w1 = 0.04 | 71.44 ± 1.2 | 70.66 ± 1.2 | 68.25 ± 1.2 | 67.31 ± 1.2
w1 = 0.1 | 73.42 ± 1.3 | 71.81 ± 1.2 | 70.97 ± 1.2 | 69.74 ± 1.2
w1 = 0.14 | 76.09 ± 1.3 | 74.6 ± 1.3 | 72.47 ± 1.3 | 71.83 ± 1.2
w1 = 0.18 | 77.04 ± 1.3 | 74.73 ± 1.3 | 73.38 ± 1.3 | 71.44 ± 1.2

O=S(=O)([O-])[O-].[Na+].[Na+] [sodium sulfate] + O
surface tension liquid-gas [mN/m], [1]
Conditions | 303.15 K | 313.15 K | 323.15 K | 333.15 K
w1 = 0.04 | 71.53 ± 0.8 | 70.7 ± 0.8 | 68.8 ± 0.78 | 67.27 ± 0.76
w1 = 0.1 | 73.56 ± 0.83 | 71.88 ± 0.81 | 70.5 ± 0.79 | 69.11 ± 0.78
w1 = 0.14 | 74.02 ± 0.83 | 72.82 ± 0.82 | 71.65 ± 0.81 | 69.93 ± 0.79
w1 = 0.18 | 76.28 ± 0.86 | 74.97 ± 0.84 | 73.22 ± 0.83 | 71.4 ± 0.81

O [water]
[2]
Conditions | surface tension liquid-gas
303.15 K | 71.54 ± 0.82 mN/m and 72.12 ± 0.82 mN/m and 71.58 ± 0.82 mN/m
313.15 K | 70.64 ± 0.81 mN/m and 68.96 ± 0.79 mN/m and 69.86 ± 0.8 mN/m
323.15 K | 69.15 ± 0.79 mN/m and 67.83 ± 0.78 mN/m and 67.57 ± 0.78 mN/m
333.15 K | 66.16 ± 0.76 mN/m and 66.39 ± 0.76 mN/m
343.15 K | 65.39 ± 0.75 mN/m and 65.8 ± 0.8 mN/m and 64.73 ± 0.75 mN/m
